Source: US20110105509A1 (Wyeth, LLC, priority 2009, published 2011)

Molecular target: T1, CRTH2 (Homo sapiens, UniProt Q9Y5Y4)
T1 construct: expressed in transfected cells; host or cells: CHO cells
T1 sequence (Q9Y5Y4 1-395): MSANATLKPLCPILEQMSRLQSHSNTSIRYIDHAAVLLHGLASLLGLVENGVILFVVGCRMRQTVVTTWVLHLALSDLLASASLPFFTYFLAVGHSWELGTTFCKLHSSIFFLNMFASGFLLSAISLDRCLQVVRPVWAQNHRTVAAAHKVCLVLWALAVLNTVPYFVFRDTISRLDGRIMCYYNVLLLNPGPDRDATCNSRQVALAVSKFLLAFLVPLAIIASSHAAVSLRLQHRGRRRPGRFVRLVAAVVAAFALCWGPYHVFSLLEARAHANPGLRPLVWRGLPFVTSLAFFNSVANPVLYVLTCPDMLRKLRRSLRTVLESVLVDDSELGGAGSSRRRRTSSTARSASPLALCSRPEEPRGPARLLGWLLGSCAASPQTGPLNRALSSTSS
Test: FRET based competitive immunoassay (cAMP) in CRTH2 expressing CHO cells
Format: cell-based
Settings: CRTH2 expressing CHO cells incubated with forskolin and PGD2; Eu3+ cryptate-labeled anti-cAMP and d2-labeled cAMP
Description: FRET Assay: To evaluate potency compounds were tested in a FRET based competitive immunoassay in which CRTH2 expressing CHO cells were incubated in the presence of forskolin and PGD2 along with Eu3+ cryptate-labeled anti-cAMP and d2-labeled cAMP.

Compound	IC50
Cc1c(-c2nn(Cc3ccc(Cl)cc3)c(=O)c3ccccc23)c2cc(Cl)ccc2n1CC(=O)O [Example 1, 2-(5-Chloro-3-(3-(4-chlorobenzyl)-4-oxo-3,4-dihydrophthalazin-1-yl)-2-methyl-1H-indol-1-yl)acetic acid]	15 nM
Cc1c(-c2nn(Cc3ccc(Cl)c(F)c3)c(=O)c3ccccc23)c2cc(Cl)ccc2n1CC(=O)O [Example 2, 2-(5-Chloro-3-(3-(4-chloro-3-fluorobenzyl)-4-oxo-3,4-dihydrophthalazin-1-yl)-2-methyl-1H-indol-1-yl)acetic acid]	18 nM
Cc1c(-c2nn(Cc3ccc(C(F)(F)F)c(F)c3)c(=O)c3ccccc23)c2cc(Cl)ccc2n1CC(=O)O [Example 3, 2-(5-Chloro-3-(3-(3-fluoro-4-(trifluoromethyl)benzyl)-4-oxo-3,4-dihydrophthalazin-1-yl)-2-methyl-1H-indol-1-yl)acetic acid]	58 nM
Cc1c(-c2nn(Cc3ccc(Cl)cc3)c(=O)c3ccccc23)c2cc(F)ccc2n1CC(=O)O [Example 4, 2-(3-(3-(4-Chlorobenzyl)-4-oxo-3,4-dihydropthalazin-1-yl)-5-fluoro-2-methyl-1H-indol-1-yl)acetic acid]	9 nM
Cc1c(-c2nn(Cc3ccc(Cl)c(F)c3)c(=O)c3ccccc23)c2cc(F)ccc2n1CC(=O)O [Example 5, 2-(3-(3-(4-Chloro-3-fluorobenzyl)-4-oxo-3,4-dihydrophthalazin-1-yl)-5-fluoro-2-methyl-1H-indol-1-yl)acetic acid]	10 nM
Cc1c(-c2nn(Cc3ccc(C(F)(F)F)c(F)c3)c(=O)c3ccccc23)c2cc(F)ccc2n1CC(=O)O [Example 6, 2-(5-Fluoro-3-(3-(3-fluoro-4-(trifluoromethyl)benzyl)-4-oxo-3,4-dihydrophthalazin-1-yl)-2-methyl-1H-indol-1-yl)acetic acid]	23 nM
Cc1c(-c2nn(Cc3ccc(Cl)cc3Cl)c(=O)c3ccccc23)c2cc(F)ccc2n1CC(=O)O [Example 7, 2-(3-(3-(2,4-dichlorobenzyl)-4-oxo-3,4-dihydrophthalazin-1-yl)-5-fluoro-2-methyl-1H-indol-1-yl)acetic acid]	4 nM
Cc1c(-c2ccc(=O)n(Cc3ccc(Cl)c(F)c3)n2)c2cc(Cl)ccc2n1CC(=O)O [Example 8, 2-(5-Chloro-3-(1-(4-chloro-3-fluorobenzyl)-6-oxo-1,6-dihydropyridazin-3-yl)-2-methyl-1H-indol-1-yl)acetic acid]	5 nM
Cc1c(-c2ccc(=O)n(Cc3ccc(Cl)cc3)n2)c2cc(Cl)ccc2n1CC(=O)O [Example 9, 2-(5-Chloro-3-(1-(4-chlorobenzyl)-6-oxo-1,6-dihydropyridazin-3-yl)-2-methyl-1H-indol-1-yl)acetic acid]	21 nM
Cc1c(-c2ccc(=O)n(Cc3ccccc3)n2)c2cc(Cl)cc(F)c2n1CC(=O)O [Example 10, 2-(3-(1-Benzyl-6-oxo-1,6-dihydropyridazin-3-yl)-5-chloro-7-fluoro-2-methyl-1H-indol-1-yl)acetic acid]	106 nM
Cc1c(-c2nn(Cc3ccccc3)c(=O)c3ccccc23)c2cc(Cl)cc(F)c2n1CC(=O)O [Example 11, 2-(3-(3-Benzyl-4-oxo-3,4-dihydrophthalazin-1-yl)-5-chloro-7-fluoro-2-methyl-1H-indol-1-yl)acetic acid]	39 nM
Cc1c(-c2ccc(=O)n(Cc3ccc(Cl)c(F)c3)n2)c2cc(F)ccc2n1CC(=O)O [Example 12, 2-(3-(1-(4-chloro-3-fluorobenzyl)-6-oxo-1,6-dihydropyridazin-3-yl)-5-fluoro-2-methyl-1H-indol-1-yl)acetic acid]	6 nM
Cc1c(-c2ccc(=O)n(Cc3ccc(Cl)cc3)n2)c2cc(F)ccc2n1CC(=O)O [Example 13, 2-(3-(1-(4-Chlorobenzyl)-6-oxo-1,6-dihydropyridazin-3-yl)-5-fluoro-2-methyl-1H-indol-1-yl)acetic acid]	5 nM
Cc1c(-c2nn(Cc3ccccc3)c(=O)c3ccccc23)c2cc(S(C)(=O)=O)cc(Cl)c2n1CC(=O)O [Example 14, 2-(3-(3-Benzyl-4-oxo-3,4-dihydrophthalazin-1-yl)-7-chloro-2-methyl-5-(methylsulfonyl)-1H-indol-1-yl)acetic acid]	169 nM
Cc1c(-c2nn(Cc3ccccc3)c(=O)c3ccccc23)c2cc(S(C)(=O)=O)cc(F)c2n1CC(=O)O [Example 15, 2-(3-(3-Benzyl-4-oxo-3,4-dihydrophthalazin-1-yl)-7-fluoro-2-methyl-5-(methylsulfonyl)-1H-indol-1-yl)acetic acid]	214 nM
COc1ccc2c(c1)c(-c1nn(Cc3ccccc3)c(=O)c3ccccc13)c(C)n2CC(=O)O [Example 16, 2-(3-(3-Benzyl-4-oxo-3,4-dihydrophthalazin-1-yl)-5-methoxy-2-methyl-1H-indol-1-yl)acetic acid]	31 nM
Cc1c(-c2ccc(=O)n(Cc3ccccc3)n2)c2cc(S(C)(=O)=O)cc(F)c2n1CC(=O)O [Example 17, 2-(3-(1-Benzyl-6-oxo-1,6-dihydropyridazin-3-yl)-7-fluoro-2-methyl-5-(methylsulfonyl)-1H-indol-1-yl)acetic acid]	2780 nM
COc1ccc2c(c1)c(-c1ccc(=O)n(Cc3ccccc3)n1)c(C)n2CC(=O)O [Example 18, 2-(3-(1-Benzyl-6-oxo-1,6-dihydropyridazin-3-yl)-5-methoxy-2-methyl-1H-indol-1-yl)acetic acid]	192 nM
COc1ccc2c(c1)c(-c1nn(C(C)C)c(=O)c3ccccc13)c(C)n2CC(=O)O [Example 19, 2-(3-(3-Isopropyl-4-oxo-3,4-dihydrophthalazin-1-yl)-5-methoxy-2-methyl-1H-indol-1-yl)acetic acid]	109 nM
Cc1c(Cc2ccc(=O)n(Cc3ccc(F)cc3F)c2)c2cc(F)ccc2n1CC(=O)O [Example 20, 2-(3-((1-(2,4-Difluorobenzyl)-6-oxo-1,6-dihydropyridin-3-yl)methyl)-5-fluoro-2-methyl-1H-indol-1-yl)acetic acid]	5 nM
Cc1c(Cc2ccc(=O)n(Cc3ccc(F)cc3F)c2)c2ccccc2n1CC(=O)O [Example 21, 2-(3-((1-(2,4-Difluorobenzyl)-6-oxo-1,6-dihydropyridin-3-yl)methyl)-2-methyl-1H-indol-1-yl)acetic acid]	18 nM
Cc1c(Cc2ccc(=O)n(C(C)C)c2)c2ccccc2n1CC(=O)O [Example 22]	765 nM

Next, values leading:

IC50	Compound
17 nM	Cc1c(Cc2ccc(=O)n(Cc3cc(F)c(F)cc3F)c2)c2cc(F)ccc2n1CC(=O)O [Example 23, 2-(5-Fluoro-2-methyl-3-((6-oxo-1-(2,4,5-trifluorobenzyl)-1,6-dihydro-pyridin-3-yl)methyl)-1H-indol-1-yl)acetic acid]
28 nM	Cc1c(Cc2ccc(=O)n(Cc3cc(F)c(F)cc3F)c2)c2ccccc2n1CC(=O)O [Example 24]
7 nM	Cc1c(Cc2ccc(=O)n(Cc3cc(F)ccc3F)c2)c2ccccc2n1CC(=O)O [Example 25, 2-(3-((1-(2,5-Difluorobenzyl)-6-oxo-1,6-dihydropyridin-3-yl)methyl)-2-methyl-1H-indol-1-yl)acetic acid]
8 nM	Cc1c(Cc2ccc(=O)n(Cc3cc(F)ccc3F)c2)c2cc(F)ccc2n1CC(=O)O [Example 26, 2-(3-((1-(2,5-Difluorobenzyl)-6-oxo-1,6-dihydropyridin-3-yl)methyl)-5-fluoro-2-methyl-1H-indol-1-yl)acetic acid]
137 nM	Cc1c(Cc2ccc(=O)n(C(C)C)c2)c2cc(F)ccc2n1CC(=O)O [Example 27, 2-(5-fluoro-3-((1-isopropyl-6-oxo-1,6-dihydropyridin-3-yl)methyl)-2-methyl-1H-indol-1-yl)acetic acid]
17 nM	Cc1c(Cc2ccc(=O)n(Cc3cccc(F)c3F)c2)c2cc(F)ccc2n1CC(=O)O [Example 28, 2-(3-((1-(2,3-Difluorobenzyl)-6-oxo-1,6-dihydropyridin-3-yl)methyl)-5-fluoro-2-methyl-1H-indol-1-yl)acetic acid]
72 nM	Cc1c(Cc2ccc(=O)n(Cc3cccc(F)c3F)c2)c2ccccc2n1CC(=O)O [Example 29]
153 nM	Cc1c(Cc2ccc(=O)n(Cc3ccc(F)c(F)c3)c2)c2ccccc2n1CC(=O)O [Example 30, 2-(3-((1-(3,4-Difluorobenzyl)-6-oxo-1,6-dihydropyridin-3-yl)methyl)-2-methyl-1H-indol-1-yl)acetic acid]
41 nM	Cc1c(Cc2ccc(=O)n(Cc3ccccc3F)c2)c2ccccc2n1CC(=O)O [Example 31, 2-(3-((1-(2-Fluorobenzyl)-6-oxo-1,6-dihydropyridin-3-yl)methyl)-2-methyl-1H-indol-1-yl)acetic acid]
8 nM	Cc1c(Cc2ccc(=O)n(Cc3ccccc3F)c2)c2cc(F)ccc2n1CC(=O)O [Example 32, 2-(5-Fluoro-3-((1-(2-fluorobenzyl)-6-oxo-1,6-dihydropyridin-3-yl)methyl)-2-methyl-1H-indol-1-yl)acetic acid]
11 nM	Cc1c(Cc2ccc(=O)n(Cc3ccc(F)c(F)c3)c2)c2cc(F)ccc2n1CC(=O)O [Example 33, 2-(3-((1-(3,4-difluorobenzyl)-6-oxo-1,6-dihydropyridin-3-yl)methyl)-5-fluoro-2-methyl-1H-indol-1-yl)acetic acid]
54 nM	Cc1c(Cc2ccc(=O)n(Cc3cccc(F)c3)c2)c2ccccc2n1CC(=O)O [Example 34, 2-(3-((1-(3-Fluorobenzyl)-6-oxo-1,6-dihydropyridin-3-yl)methyl)-2-methyl-1H-indol-1-yl)acetic acid]
